In patent publication US20110130369A1, “USE OF FTS FOR THE TREATMENT OF MYOCARDIAL ISCHEMIA/REPERFUSION INJURY” (RAMOT AT TEL-AVIV UNIVERSITY LTD., priority 2008, published 2011):

What was measured:
Male Lewis rats [1] = test: LAD artery ligation I/R model, echocardiography at day 14; settings: 5 mg/kg i.p.
Experimental: (§2) At the age of 12 weeks, rats were anesthetized (mixture of 8 mg/100 g ketamine, 5 mg/100 g xylazine), intubated, and ventilated with a Harvard Rodent Ventilator Model 383 (respiratory rate: 50/min, respiratory volume: 2.5 mL). A rectal thermocouple was used to continuously monitor body temperature, which was maintained at 37° C. using a heating pad. A left thoracotomy in the third intercostal space was performed to expose the heart. The location of the left descending coronary artery was identified and then occluded with a 6-0 silk suture. Occlusion was confirmed by monitoring the pallor of the region at risk, and an electrocardiogram was used to observe changes such as widening of QRS and ST-T segment elevation. After 30 minutes, the occlusion was removed, the thorax was closed, and rats were returned to their cages at the local vivarium.
FTS was stored in chloroform, which was evaporated under a stream of nitrogen immediately before use. The powder was dissolved in absolute ethanol and diluted to the desired concentration in sterile PBS made basic with NaOH. Carrier solution (1000 μl) containing 1.35 mg of FTS (5 mg/kg) was injected intraperitoneally (i.p.) into each rat. Control solution was prepared at the same time starting with PBS and absolute ethanol.
LAD ligation was performed in two groups of rats. Group 1 received 5 mg/kg FTS and group 2 received PBS according to two protocols: (A) FTS or PBS was administered 7 days on a daily basis before LAD ligation, locally during occlusion opening (0.5 μM/100 μl), and continued for 14 days, every other day [prophylactic regimen] (B) FTS or PBS was administered 14 days after LAD ligation every other day [treatment regimen].
To examine the effect of systemic FTS treatment on the heart, in vivo experiments were conducted according two protocols.

[2] = human, in vivo; cited from earlier work
isolated rat heart [3] = test: Measurement of irreversible ischemic injury by TTC staining of isolated perfused hearts; settings: FTS 1 μM perfusion, 30 minutes ischemia and 30 minutes of reperfusion; control 23.7±4%, p<0.05; mean±SE
Experimental: (§1) Rats were heparinized (500 U/kg) and anesthetized (i.p.) with ether. The hearts were quickly removed, the aorta was cannulated and the heart perfused in retrograde according to Langendorff at a pressure of 96 cmH2O with oxygenated Krebs-Henseleit bicarbonate buffer solution (KHB) containing (mM): 118 NaCl, 2.4 KCl, 1.2 MgSO4, 7×H2O, 2.5 CaCl2, 5 EDTA, 1.2 KH2PO4, 25 NaHCO3, 4 glucose at 37° C. [[…], Offen D, Maulik N, Otani H, Barhum Y, et al., Am J Physiol Heart Circ Physiol 284:H2351-59 (2003)]. The isolated heart was stabilized for 20 minutes at a constant perfusion pressure and then subjected to 30 minutes of ischemia followed by 30 minutes of reperfusion. Ischemia was created by clamping the aortic cannula. During reperfusion, hearts were given KHB (buffer) with FTS or KHB only. The temperature of the heart (measured in the right ventricle) was maintained at 37°±0.2° C. throughout the experiment by a micro-thermocouple connected to a digital thermometer (Webster Laboratories […], Calif.). In all stages of the protocol, the left ventricular developed pressure (LVP), the rate of pressure development and relaxation (±dP/dt) and the heart rate (HR), were continuously recorded by the CODAS data acquisition system (San Diego, Calif.). Rate pressure product (RPP), an index of myocardial workload, was calculated by multiplying LVP by HR. […]

isolated rat heart [4] = test: Enzymatic leakage of CK and LDH into the coronary effluent of isolated perfused hearts; settings: FTS 1 μM, at 1 minute and 30 minutes of reperfusion
Experimental: as §1

isolated rat heart [5] = test: Isolated heart perfusion (Langendorff), 30 min ischemia / 30 min reperfusion, hemodynamic recovery; settings: FTS 1 μM in perfusate
Experimental: FTS was provided by Concordia Pharmaceuticals, Inc. (Ft. Lauderdale, Fla.). […] The powder was dissolved in DMSO and diluted with Krebs-Henseleit bicarbonate buffer solution (KHB) to yield a 1 μM drug solution containing 10% DMSO. Rats were heparinized (500 U/kg) and anesthetized (i.p.) with ether. The hearts were quickly removed, the aorta was cannulated and the heart perfused in retrograde according to Langendorff at a pressure of 96 cmH2O with oxygenated Krebs-Henseleit bicarbonate buffer solution (KHB) containing (mM): 118 NaCl, 2.4 KCl, 1.2 MgSO4, 7×H2O, 2.5 CaCl2, 5 EDTA, 1.2 KH2PO4, 25 NaHCO3, 4 glucose at 37° C. [[…], Offen D, Maulik N, Otani H, Barhum Y, et al., Am J Physiol Heart Circ Physiol 284:H2351-59 (2003)]. The isolated heart was stabilized for 20 minutes at a constant perfusion pressure and then subjected to 30 minutes of ischemia followed by 30 minutes of reperfusion. Ischemia was created by clamping the aortic cannula. During reperfusion, hearts were given KHB (buffer) with FTS or KHB only. The temperature of the heart (measured in the right ventricle) was maintained at 37°±0.2° C. throughout the experiment by a micro-thermocouple connected to a digital thermometer (Webster Laboratories […], Calif.). In all stages of the protocol, the left ventricular developed pressure (LVP), the rate of pressure development and relaxation (±dP/dt) and the heart rate (HR), were continuously recorded by the CODAS data acquisition system (San Diego, Calif.). Rate pressure product (RPP), an index of myocardial workload, was calculated by multiplying LVP by HR. Coronary effluent was collected at one-minute intervals before and after ischemia, at various time points (1, 10 and 30 minutes reperfusion) and analyzed for CK activity (Boehringer Mannheim). Results are expressed as means±standard error of the mean (SE). Values during stabilization period were defined as 100%. A statistical difference between the groups was assessed by analysis of variance (ANOVA) with repeated measurements using the multiple comparison option of Duncan. If differences were established, values were compared using Student's t-test: p<0.05 was considered significant. To determine the protective effects of Ras protein inhibition on cardiac damage derived from I/R injury ex vivo, we first determined the baseline absolute values of the rats and cardiac function prior to ischemia in FTS (1 μM) and control groups. […] Values are expressed as mean±SE. Next, we perfused the isolated rat hearts with FTS (1 μM) in the Langendorff system after 30 minutes of ischemia (FIG. 1). FTS had no effect on the CF recovery in the FTS vs. control group (FIG. 1A) during the 30 minutes of reperfusion.

[6] = test system: Ras and its downstream effectors; test: Western immunoblotting / Ras-GTP pull-down of hearts from LAD ligation rats (in vivo); set-up: species or system rat; settings: Protocol A, 5 mg/kg
[7] = test system: Ras and its downstream effectors; test: Western immunoblotting / Ras-GTP pull-down of homogenates of isolated perfused hearts (ex vivo); set-up: species or system rat; settings: FTS 1 μM, 30 minutes of reperfusion
Experimental: Hearts were obtained from FTS- and PBS-treated rats (LAD ligation experiments) and from isolated heart perfusion experiments. The hearts were homogenized in cold homogenization buffer containing protease inhibitors. Protein concentration was determined by the Bradford assay and samples containing 100 μg protein were used for determination of protein levels by Western immunoblotting using: pan-anti-Ras Ab (Ab03; Santa Cruz, Calif.), anti JNK Ab (Cell Signaling; Danvers, Mass.), anti p-JNK Ab (Cell Signaling), anti P38 Ab (Cell Signaling), anti p-P38 Ab (Cell Signaling), anti Mst1 Ab (Cell Signaling), and anti p-Mst1 Ab (Cell Signaling). Enhanced chemiluminescence (ECL) and densitometric analysis were performed as detailed previously [[…], Weisz […], Paz A, Marciano D, Egozi Y, et al., Biochemistry 37(5):1306-14 (1998)1. The hearts were prepared as described above. Samples containing 0.5 mg protein used for determination of levels of active GTP-bound Ras by the glutathione S-transferase-RBD pull-down assay followed by Western immunoblotting with pan-anti-Ras Ab as detailed previously [Jansen […], Mayer […], et al., Proc Natl Acad Sci U.S.A. 96(24):14019-24 (1999)]. To examine the effect of FTS on Ras signaling on its prominent downstream effectors, Western immunoblotting using homogenates of the isolated perfused hearts was performed. Quantitative analysis of the immunoblots disclosed a reduction in levels of active Ras (Ras-GTP) and p-Jnk in hearts of the FTS group (p<0.05) at 30 minutes of reperfusion.

Male Lewis rats [8] = test: LAD artery ligation I/R model, histopathology (H&E and Masson Trichrome), area of irreversible damage; settings: 5 mg/kg i.p.
Experimental: as §2
FTS was stored in chloroform, which was evaporated under a stream of nitrogen immediately before use. The powder was dissolved in absolute ethanol and diluted to the desired concentration in sterile PBS made basic with NaOH. […]
Hearts were removed and fixed in 4% formalin, then embedded in paraffin. […] Slides were then assessed in a blinded fashion by a pathologist using light microscopy and scored for the percentage of LVP involvement and collagen deposition. Scar area was evaluated using data from both H&E and Masson staining. […]

[9] = Protocol A (prophylactic regimen), p<0.05
[10] = reperfusion after 30 minutes of ischemia, p<0.05

## CC(C)=CCC/C(C)=C/CC/C(C)=C/CSc1ccccc1C(=O)O [FTS, S-farnesylthiosalicylic acid]
Male Lewis rats [1]; Protocol A (prophylactic regimen)
  hemodynamic parameters of cardiac function vs. control I/R: significant improvement in most hemodynamic parameters
Male Lewis rats [1]; [9]
  left ventricular end-diastolic area (LVEDA) vs. control I/R: significantly better
  left ventricular end-systolic area (LVESA) vs. control I/R: significantly better
Male Lewis rats [1]; Protocol A (prophylactic regimen), control I/R 0.1±0.01, p<0.05, mean±SE
  septum diameter: 0.14±0.01 cm
Male Lewis rats [1]; Protocol A (prophylactic regimen), control I/R 38±4%, p<0.05, mean±SE
  fractional shortening of area: 55±6%
Male Lewis rats [1]; Protocol B (treatment regimen, 14 days post-LAD ligation)
  cardiac hemodynamic function vs. control I/R: no improvement
[2]
  tolerability / dose-limiting toxicities: well-tolerated compound without dose-limiting toxicities
Isolated rat heart [3]
  regions of irreversible ischemic injury (TTC-negative area, percentage of the entire area of the section): 12.7±2%
Isolated rat heart [4]
  CK release to the coronary effluent vs. control: lower in the FTS group compared with control group, but did not reach statistical significance
  LDH release to the coronary effluent vs. control: lower in the FTS group compared with control group, but did not reach statistical significance
Isolated rat heart [5]; 30 minutes of reperfusion after 30 minutes of ischemia
  CF (coronary flow) recovery vs. control: no effect
Isolated rat heart [5]; reperfusion after 30 minutes of ischemia
  recovery of HR vs. control: no significant difference
Isolated rat heart [5]; [10]
  LVP recovery vs. control: significantly better
  ±dP/dt recovery vs. control: significantly better
[6]
  levels of Jnk vs. control: did not differ
  levels of Mst vs. control: did not differ
  levels of P38 vs. control: did not differ
  levels of p-Jnk vs. control: did not differ
  levels of p-P38 vs. control: did not differ
[6]; p<0.05
  levels of active Ras (Ras-GTP) vs. control: reduction
  levels of p-Mst1 vs. control: reduction
  levels of total Ras vs. control: reduction
[7]
  Jnk levels vs. control: No differences
  Mst1 levels vs. control: No differences
  P38 levels vs. control: No differences
  p-Mst1 levels vs. control: No differences
  p-P38 levels vs. control: No differences
  total Ras levels vs. control: No differences
[7]; p<0.05
  levels of active Ras (Ras-GTP) vs. control: reduction
  levels of p-Jnk vs. control: reduction
Male Lewis rats [8]; Protocol A (prophylactic regimen), control I/R 36±7%, mean±SE
  area of irreversible damage (percentage of LV wall): 17.25±2.5%
Male Lewis rats [8]; Protocol B (treatment regimen)
  area of irreversible damage vs. control I/R: did not show a significant difference
